Patent US8415342B2, “Besifloxacin ophthalmic composition for the treatment or control of infection” (Bausch & Lomb Incorporated, priority 2008, dated 2013)
Values after ≈ are worked out from the molar mass of the structure shown. Where two headings read alike, the source gives them in different places.

Test system: Pathogens Associated With Bacterial Conjunctivitis
Assay: Integrated besifloxacin MIC data from preclinical (nonclinical) studies (Table 8)
Type: cell-based
Settings: for MIC50: read-out: MIC50
[1] = Proteus mirabilis Quinolone-S, N 98
[2] = Serratia marcescens Quinolone-S, N 98

For N[C@@H]1CCCCN(c2c(F)cc3c(=O)c(C(=O)O)cn(C4CC4)c3c2Cl)C1 [Besifloxacin, (R)-(+)-(3-amino-2,3,4,5,6,7-hexahydro-1H-azepin-1-yl)-8-chloro-1-cyclopropyl-6-fluoro-1,4,-dihydro-4-oxo-3-quinolinecarboxylic acid], the MIC90 (Moraxella species, N 30, agar dilution, read-out: MIC90) was 0.13 µg/mL (≈ 0.33 µM), the “MIC Range” value (Morganella morganii Quinolone-S, N 39) was 0.03 to 2 µg/mL and the MIC50 (Morganella morganii, Morganella morganii Quinolone-R, N 12) was 4 µg/mL (≈ 10.2 µM). The MIC90 (Morganella morganii, Morganella morganii Quinolone-R, N 12, read-out: MIC90) was 8 µg/mL (≈ 20.3 µM), the MIC90 (Morganella morganii, Morganella morganii Quinolone-S, N 39, read-out: MIC90) was 1 µg/mL (≈ 2.54 µM) and the “MIC Range” value (Neisseria gonorrhoeae, N 103) was 0.004 to 2 µg/mL. For the same molecule, the MIC50 (Neisseria gonorrhoeae, N 103) was 0.015 µg/mL (≈ 0.0381 µM), the MIC90 (Neisseria gonorrhoeae, N 103, read-out: MIC90) was 0.015 µg/mL (≈ 0.0381 µM) and the “MIC Range” value (Propionibacterium acnes, N 21, agar dilution) was 0.12 to 0.25 µg/mL. The “MIC Range” value [1] was 0.25 to 4 µg/mL, the MIC50 [1] was 0.5 µg/mL (≈ 1.27 µM) and the MIC90 (Proteus mirabilis, Proteus mirabilis Quinolone-S, N 98, read-out: MIC90) was 1 µg/mL (≈ 2.54 µM). The “MIC Range” value (Pseudomonas aeruginosa Quinolone-S, N 49) was 0.5 to 4 µg/mL, the MIC50 (Pseudomonas aeruginosa, Pseudomonas aeruginosa Quinolone-R, N 51) was greater than 8 µg/mL and the MIC90 (Pseudomonas aeruginosa, Pseudomonas aeruginosa Quinolone-R, N 51, read-out: MIC90) was greater than 8 µg/mL. The MIC50 (Pseudomonas aeruginosa, Pseudomonas aeruginosa Quinolone-S, N 49) was 1 µg/mL (≈ 2.54 µM), the MIC90 (Pseudomonas aeruginosa, Pseudomonas aeruginosa Quinolone-S, N 49, read-out: MIC90) was 2 µg/mL (≈ 5.08 µM) and the MIC90 (S. aureus, value used for PK/PD ratios of Study 424) was “^aMIC90: S. aureus = 1 μg/mL”. For the same molecule, the “MIC Range” value [2] was 0.25 to 2 µg/mL, the MIC50 [2] was 1 µg/mL (≈ 2.54 µM) and the MIC90 (Serratia marcescens, Serratia marcescens Quinolone-S, N 98, read-out: MIC90) was 2 µg/mL (≈ 5.08 µM). For the same molecule, the “MIC Range” value (Staphylococcus aureus MRSA-QR, N 73) was 0.25 to 8 µg/mL, the “MIC Range” value (Staphylococcus aureus MSSA-QR, N 12) was 0.03 to 4 µg/mL and the MIC50 (Staphylococcus aureus, MRSA, Staphylococcus aureus MRSA-QR, N 73) was 1 µg/mL (≈ 2.54 µM). For the same molecule, the MIC50 (Staphylococcus aureus, MRSA, Staphylococcus aureus MRSA-QS, N 36) was 0.03 µg/mL (≈ 0.0762 µM), the MIC50 (Staphylococcus aureus, MSSA, Staphylococcus aureus MSSA-QR, N 12) was 0.25 µg/mL (≈ 0.635 µM) and the MIC90 (Staphylococcus aureus, MSSA, Staphylococcus aureus MSSA-QR, N 12, read-out: MIC90) was 4 µg/mL (≈ 10.2 µM). For the same molecule, the MIC50 (Staphylococcus aureus, MSSA, Staphylococcus aureus MSSA-QS, N 80) was 0.03 µg/mL (≈ 0.0762 µM), the MIC90 (Staphylococcus aureus, S. aureus, value used for PK/PD ratios of Study 424, read-out: MIC90) was 1 µg/mL and the “MIC Range” value (Staphylococcus epidermidis MRSE-QR, N 32) was 0.25 to 8 µg/mL. The “MIC Range” value (Staphylococcus epidermidis MSSE-QR, N 5) was 0.25 to 1 µg/mL, the “MIC Range” value (Staphylococcus epidermidis MSSE-QS, N 39) was 0.015 to 0.06 µg/mL and the MIC50 (Staphylococcus epidermidis, MRSE, Staphylococcus epidermidis MRSE-QR, N 32) was 2 µg/mL (≈ 5.08 µM). The MIC50 (Staphylococcus epidermidis, MRSE, Staphylococcus epidermidis MRSE-QS, N 23) was 0.03 µg/mL (≈ 0.0762 µM), the MIC50 (Staphylococcus epidermidis, Staphylococcus epidermidis MSSE-QR, N 5) was 0.5 µg/mL (≈ 1.27 µM) and the “MIC Range” value (Staphylococcus hominis Quinolone-R, N 35) was 0.125 to 2 µg/mL. For the same molecule, the “MIC Range” value (Staphylococcus hominis Quinolone-S, N 15) was 0.015 to 0.06 µg/mL, the MIC50 (Staphylococcus hominis, Staphylococcus hominis Quinolone-S, N 15) was 0.03 µg/mL (≈ 0.0762 µM) and the MIC90 (Staphylococcus hominis, Staphylococcus hominis Quinolone-S, N 15, read-out: MIC90) was 0.06 µg/mL (≈ 0.152 µM). For the same molecule, the “MIC Range” value (Staphylococcus lugdunensis Quinolone-R, N 5) was 0.125 to 2 µg/mL, the “MIC Range” value (Staphylococcus lugdunensis Quinolone-S, N 10) was 0.015 to 0.06 µg/mL and the MIC50 (Staphylococcus lugdunensis, Staphylococcus lugdunensis Quinolone-R, N 5) was 0.5 µg/mL (≈ 1.27 µM). The MIC90 (Staphylococcus lugdunensis, Staphylococcus lugdunensis Quinolone-R, N 5, read-out: MIC90) was 2 µg/mL (≈ 5.08 µM), the MIC50 (Staphylococcus lugdunensis, Staphylococcus lugdunensis Quinolone-S, N 10) was 0.03 µg/mL (≈ 0.0762 µM) and the MIC90 (Staphylococcus lugdunensis, Staphylococcus lugdunensis Quinolone-S, N 10, read-out: MIC90) was 0.06 µg/mL (≈ 0.152 µM). For the same molecule, the MIC50 (Streptococcus mitis, Streptococcus mitis group, N 90) was 0.06 µg/mL (≈ 0.152 µM), the MIC90 (Streptococcus mitis, Streptococcus mitis group, N 90, read-out: MIC90) was 0.12 µg/mL (≈ 0.305 µM) and the “MIC Range” value (Streptococcus oralis, N 22) was 0.03 to 2 µg/mL. For the same molecule, the MIC50 (Streptococcus oralis, N 22) was 0.06 µg/mL (≈ 0.152 µM), the MIC90 (Streptococcus oralis, N 22, read-out: MIC90) was 0.12 µg/mL (≈ 0.305 µM) and the “MIC Range” value (Streptococcus pneumoniae Penicillin-S, N 123) was 0.015 to 1 µg/mL. It also gave an MIC50 (Streptococcus pneumoniae, Streptococcus pneumoniae Penicillin-I, N 28) of 0.12 µg/mL (≈ 0.305 µM), an MIC90 (Streptococcus pneumoniae, Streptococcus pneumoniae Penicillin-I, N 28, read-out: MIC90) of 0.12 µg/mL (≈ 0.305 µM) and an MIC50 (Streptococcus pneumoniae, Streptococcus pneumoniae Penicillin-R, N 61) of 0.12 µg/mL (≈ 0.305 µM). It also gave an MIC90 (Streptococcus pneumoniae, Streptococcus pneumoniae Penicillin-R, N 61, read-out: MIC90) of 0.12 µg/mL (≈ 0.305 µM), an MIC50 (Streptococcus pneumoniae, Streptococcus pneumoniae Penicillin-S, N 123) of 0.12 µg/mL (≈ 0.305 µM) and an MIC90 (Streptococcus pneumoniae, Streptococcus pneumoniae Penicillin-S, N 123, read-out: MIC90) of 0.12 µg/mL (≈ 0.305 µM). It also gave an MIC50 (Streptococcus pneumoniae, Streptococcus pneumoniae Quinolone-R, N 23) of 1 µg/mL (≈ 2.54 µM), an MIC90 (Streptococcus pneumoniae, Streptococcus pneumoniae Quinolone-R, N 23, read-out: MIC90) of 4 µg/mL (≈ 10.2 µM) and an MIC50 (Streptococcus pyogenes, N 201) of 0.06 µg/mL (≈ 0.152 µM). For the same molecule, the MIC90 (Streptococcus pyogenes, N 201, read-out: MIC90) was 0.12 µg/mL (≈ 0.305 µM) and the “MIC Range” value (Streptococcus salivarius, N 2) was 0.06 µg/mL (≈ 0.152 µM).
